According to US12433909B2, “Formulations of cyclic macromolecule-based nanoparticles encapsulating small molecules” (Board of Regents of The University of Texas System, priority 2019, dated 2025):
pIC50: −log10 of the molar value.

Legend:
[1] = experimental drug loading in CDN nanoparticles, quantified by absorbance; type: physicochemical; conditions: for drug loading in CDNs 1-3: theoretical loading of 10% (w/w)
Description: Panobinostat-loaded nanoparticles were formulated by doping a given concentration of the drug with CDN in 2.5 vol % DMSO-aqueous medium. Panobinostat was added at different theoretical loadings, and the amount of panobinostat incorporated into the network after thorough washing was quantified by absorbance.
An aqueous dispersion (2.0 mL) of blank CDN nanoparticles (10 mg/mL) was doped with DMSO (50 uL) solution of panobinostat (40 mg/mL; 10% theoretical loading). The aqueous dispersion was left to agitate for 18 h, and subjected to concentration via ultrafiltration through Amicon Ultra-15 centrifugal filters (3 kDa MWCO, […]) for 4, 20 mins spins at 5000 RCF. Aliquots were frozen and lyophilized for later studies.
Drug loading was quantified by absorbance ([…] for quisinostat, panobinostat and dacinostat; 285 nm for givinostat; 365 nm for camptothecin; 550 nm for Nile Red) on a Tecan plate reader. Lyophilized nanoparticles were dissolved at 5 mg/ml in DMSO. Samples were plated in triplicate ([…], nanoparticles and 10 μL DMSO per well) in a clear, flat bottom 96-well assay plate. A control curve was constructed in technical triplicate by adding 40 μL blank nanoparticles per well and spiking with 10 μL of known drug concentration in DMSO. Experimental drug loading was calculated as mass of drug/mass of nanoparticles (w/w %). 40 μL of bortezomib loaded nanoparticles (5 mg/ml aqueous solution) were extracted with 100 μL of ethylacetate. The ethylacetate layer was collected and dried under nitrogen. The contents were dissolved in 40 μL of DMSO and plated in triplicate. A control curve was constructed in technical triplicate by spiking with 10 μL of known drug concentration in DMSO. Absorbance was measured at 285 nm. Experimental drug loading was calculated as mass of drug/mass of nanoparticles (w/w %).

GL261 cells = assay: in vitro GL261 cell viability assay (CellTiter-Glo); type: cell-based, murine; conditions: 72 hours of incubation, CDN-4 21% drug loaded
Description: For IC50 experiments, GL261 cells were seeded at […] into 96 well plates containing Dulbecco's Modified Eagle Medium (DMEM) and 10% Fetal Bovine Serum (FBS). Cells were given 4 hours to adhere prior to drug treatments. Free panobinostat, drug-loaded and blank CDN-4 (21% drug loaded) were dispersed in 2.5% DMSO in cell culture media at 10 mg/mL drug concentration. Equivalent doses were added to the 96 well plates at 16 serial dilutions with concentrations from 0-70 μM and incubated at 37° C. with 5% CO2 for 72 hours. Cell viability was determined with an IC50 value obtained from a CellTiter-Glo Luminescence assay and calculated using GraphPad Prism (San Diego, CA USA). For uptake experiments, GL261 cells were seeded at 90,000 cells/1 mL into 48 well plates containing DMEM and 10% FBS. Panobinostat loaded CDN-4 nanoparticles (250 ug) were incubated with cells for 48 hours, after which cells were thoroughly washed, fixed, and counterstained with DAPI. Images were collected on an upright Nilkon Ti2 microscope.

[2] = mouse, in vivo
Description: All animal procedures were approved by the Institutional Animal Care and Use Committee at University of Texas Health Science at Houston in accordance with all relevant guidelines. Healthy, female NSG mice were used for in vivo experiments. CDN nanoparticles were administered by direct infusion into the cisternal magna. Briefly, mice were anesthetized with isoflurane (2%) and mounted on a stereotaxic frame (Kopf Instruments, Tujunga, CA, USA). With the head tilted forward, an incision was made across the back of the neck and muscles were gentle retracted to expose the atlanto-occipal membrane. A Hamilton syringe (29 gauge needle, 30° bevel tip) in a 2 uL volume delivered over 1 minute at an injection dept of 1 mm. The needle was left in place for an additional 2 minutes to prevent backflow. All animals received a subcutaneous injection of buprenorphine (1 mg/kg) prior to surgery, and other analgesics to control pain. For MTD studies, panobinostat loaded CDN-4 nanoparticles were administered at increasing concentrations. […] For pharmacokinetic studies, mice received CDN-4 nanoparticles at a dose of 560 ug panobinostat and euthanized at specified time points (1, 4, 8, 24, and 48 hours after nanoparticle administration, n=5 mice per time point). One mouse in the 24 hour time point died during surgery, leaving n=4 for that experimental group. […]

[3] = background statement; cited from earlier work

Compound: CC(C)C[C@H](NC(=O)[C@H](Cc1ccccc1)NC(=O)c1cnccn1)B(O)O [bortezomib]
- drug loading in CDNs 1-3 [1]: loaded particularly well

Compound: Nc1ccn([C@@H]2O[C@H](CO)[C@@H](O)[C@@H]2O)c(=O)n1 [cytarabine]
- experimental loading with all the CDNs ([1]; control hydrophilic drug, data not shown): poor experimental loading

Compound: O=C(/C=C/c1ccc(CN(CCO)CCc2c[nH]c3ccccc23)cc1)NO [dacinostat]
- drug loading in CDNs 1-3 [1]: loaded particularly well

Compound: CCN(CC)Cc1ccc2cc(COC(=O)Nc3ccc(C(=O)NO)cc3)ccc2c1 [givinostat]
- drug loading in CDNs 1-3 [1]: loaded particularly well

Compound: Cc1[nH]c2ccccc2c1CCNCc1ccc(/C=C/C(=O)NO)cc1 [non-CDN-formulated Pb]
- pIC50 (GL261 cells): 6.64

Compound: Cc1[nH]c2ccccc2c1CCNCc1ccc(/C=C/C(=O)NO)cc1 [panobinostat]
- pIC50 (GL261 cells; Mus musculus, GL261): 6.77
- panobinostat in plasma [2]: undetectable
- water solubility [3]: poorly water soluble

Compound: Cn1cc(CNCC2CCN(c3ncc(C(=O)NO)cn3)CC2)c2ccccc21 [quisinostat]
- drug loading in CDNs 1-3 [1]: loaded particularly well
